Reference: patent publication US12344610B2, “APOL1 inhibitors and methods of use” (Maze Therapeutics, Inc., priority 2022, dated 2025)

Tests used:
Assay type in all cases: cell-based
[1] = system: Trypanosoma brucei Lister 427 VSG221 with APOL1 G2 recombinant protein; test: APOL1 G2 trypanosome cell rescue assay (Example B5); details: Trypanosoma brucei, 20 h, read-out: APOL1 G2 Trypanosome Rescue EC50, Trypanosoma brucei Lister 427 VSG221 with APOL1 G2 recombinant protein, 20 hours, CellTiter-Glo; geometric mean of at least 2 assay runs; † = single assay run
In short: (§1)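 Compounds in duplicate 2-fold, 11-point series with 0.4% DMSO final. Next, tag-free mature APOL1 variant protein went in from a 2 μg/mL solution, then trypanosomes to 250 per well. Plates incubated 20 h humidified at 37° C, equilibrated to room temperature, and CellTiter-Glo added for luminescence.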

[2] = system: Trypanosoma brucei Lister 427 VSG221 with APOL1 G0 recombinant protein; test: APOL1 G0 trypanosome cell rescue assay (Example B5); details: Trypanosoma brucei, 20 h, read-out: APOL1 G0 Trypanosome Rescue EC50, Trypanosoma brucei Lister 427 VSG221 with APOL1 G0 recombinant protein, 20 hours, CellTiter-Glo; geometric mean of at least 2 assay runs; † = single assay run
In short: as §1

[3] = system: HEK293 cells overexpressing APOL1 G2; test: APOL1 G2 HEK293 cell rescue assay (reversal of cell death caused by overexpression of APOL1); details: Homo sapiens, HEK293, HEK293 overexpressing APOL1 G2; geometric mean of at least 2 assay runs; † = single assay run
In short: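 EC50 is the half-maximal effective concentration for reversing cell death driven by APOL1 G2 overexpression in HEK293 cells. Reported as geometric mean of at least 2 runs on separate days, each run averaging duplicate wells per plate; some values from a single run.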

[4] = system: Trypanosoma brucei Lister 427 VSG221 with APOL1 G1 recombinant protein; test: APOL1 G1 trypanosome cell rescue assay (Example B5); details: Trypanosoma brucei, 20 h, read-out: APOL1 G1 Trypanosome Rescue EC50, Trypanosoma brucei Lister 427 VSG221 with APOL1 G1 recombinant protein, 20 hours, CellTiter-Glo; geometric mean of at least 2 assay runs; † = single assay run
In short: as §1

| Structure (SMILES) | EC50 [1] [nM] | EC50 [2] [nM] | EC50 [3] [nM] | EC50 [4] [nM] |
| --- | --- | --- | --- | --- |
| CN(c1c(F)cc(OCCN2CCC3(CC2)C(=O)Nc2ccc(C#N)cc23)cc1F)S(C)(=O)=O [Compound 128, N-[4-(2-{5-cyano-2-oxo-1,2-dihydrospiro[indole-3,4′-piperidin]-1′-yl}ethoxy)-2,6-difluorophenyl]-N-methylmethanesulfonamide] | 133 | 269 | 42.7 | 383 |
| Cc1cc(OCCN2CCC3(CC2)C(=O)Nc2ccc(Cl)cc23)cc(C)c1S(C)(=O)=O [Compound 129, 5-chloro-1′-[2-(4-methanesulfonyl-3,5-dimethylphenoxy)ethyl]-1,2-dihydrospiro[indole-3,4′-piperidin]-2-one] | 22.2 | 65.2 | 24.6 | 69.5 |
| Cn1c(=O)oc2cc(OCCN3CCC4(CC3)C(=O)Nc3ccc(Cl)cc34)ccc21 [Compound 131, 5-chloro-1′-{2-[(3-methyl-2-oxo-2,3-dihydro-1,3-benzoxazol-6-yl)oxy]ethyl}-1,2-dihydrospiro[indole-3,4′-piperidin]-2-one] | 47.8 | 132 | 68 | 176 |
| Cn1c(=O)oc2cc(OCCN3CCC4(CC3)C(=O)Nc3ccc(C#N)cc34)ccc21 [Compound 132, 1′-{2-[(3-methyl-2-oxo-2,3-dihydro-1,3-benzoxazol-6-yl)oxy]ethyl}-2-oxo-1,2-dihydrospiro[indole-3,4′-piperidine]-5-carbonitrile] | 180 | 525 | 153 | 731 |
| CS(=O)(=O)C1(c2c(F)cc(OCCN3CCC4(CC3)C(=O)Nc3ccc(Cl)cc34)cc2F)COC1 [Compound 136, 5-chloro-1′-{2-[3,5-difluoro-4-(3-methanesulfonyloxetan-3-yl)phenoxy]ethyl}-1,2-dihydrospiro[indole-3,4′-piperidin]-2-one] | 14.3 | 31.5 | 22.4 | 37.1 |
| CC(c1c(F)cc(OCCN2CCC3(CC2)C(=O)Nc2ccc(C#N)cc23)cc1F)S(C)(=O)=O (centres unmarked) [Compound 137, 1′-{2-[3,5-difluoro-4-(1-methanesulfonylethyl)phenoxy]ethyl}-2-oxo-1,2-dihydrospiro[indole-3,4′-piperidine]-5-carbonitrile] | 119 | 322 | 114 | 454 |
| Cc1cc(OCCN2CCC3(CC2)C(=O)Nc2ccc(C#N)cc23)cnc1S(C)(=O)=O [Compound 140, 1′-{2-[(6-methanesulfonyl-5-methylpyridin-3-yl)oxy]ethyl}-2-oxo-1,2-dihydrospiro[indole-3,4′-piperidine]-5-carbonitrile] | 164 | 408 | 172 | 653 |
| CC(C)N1C(=O)Cc2cc(OCCN3CCC4(CC3)C(=O)Nc3ccc(C#N)cc34)ccc21 [Compound 144, 2-oxo-1′-(2-{[2-oxo-1-(propan-2-yl)-2,3-dihydro-1H-indol-5-yl]oxy}ethyl)-1,2-dihydrospiro[indole-3,4′-piperidine]-5-carbonitrile] | 101 | 224 | 81 | 358 |
| CC(C)N1C(=O)Cc2cc(OCCN3CCC4(CC3)C(=O)Nc3ccc(Cl)cc34)ccc21 [Compound 145, 5-chloro-1′-(2-{[2-oxo-1-(propan-2-yl)-2,3-dihydro-1H-indol-5-yl]oxy}ethyl)-1,2-dihydrospiro[indole-3,4′-piperidin]-2-one] | 35.5 | 86.5 | 50.4 | 118 |
| CN1Cc2cc(OCCN3CCC4(CC3)C(=O)Nc3ccc(Cl)cc34)ccc2C1=O [Compound 146, 5-chloro-1′-{2-[(2-methyl-1-oxo-2,3-dihydro-1H-isoindol-5-yl)oxy]ethyl}-1,2-dihydrospiro[indole-3,4′-piperidin]-2-one] | 119 | 346 | 121 | 427 |
| CN=S(C)(=O)c1ccc(OCCN2CCC3(CC2)C(=O)Nc2ccc(Cl)cc23)cc1 (centres unmarked) [Compound 147, 5-chloro-1′-(2-{4-[methyl(methylimino)oxo-λ^6-sulfanyl]phenoxy}ethyl)-1,2-dihydrospiro[indole-3,4′-piperidin]-2-one] | 65.4 | 155 | 63.1 | 231 |
| CN=S(C)(=O)c1ccc(OCCN2CCC3(CC2)C(=O)Nc2ccc(C#N)cc23)cc1 (centres unmarked) [Compound 150, 1′-(2-{4-[methyl(methylimino)oxo-λ^6-sulfanyl]phenoxy}ethyl)-2-oxo-1,2-dihydrospiro[indole-3,4′-piperidine]-5-carbonitrile] | 519 | 1440 | 228 | 2290 |
| CN1CCc2cc(OCCN3CCC4(CC3)C(=O)Nc3ccc(Cl)cc34)ccc2S1(=O)=O [Compound 153, 6-(2-{5-chloro-2-oxo-1,2-dihydrospiro[indole-3,4′-piperidin]-1′-yl}ethoxy)-2-methyl-3,4-dihydro-2H-1λ^6,2-benzothiazine-1,1-dione] | 25.6 | 52.2 | 22.1 | 66.7 |
| CN1CCc2cc(OCCN3CCC4(CC3)C(=O)Nc3ccc(C#N)cc34)ccc2S1(=O)=O [Compound 154, 1′-{2-[(2-methyl-1,1-dioxo-3,4-dihydro-2H-1λ^6,2-benzothiazin-6-yl)oxy]ethyl}-2-oxo-1,2-dihydrospiro[indole-3,4′-piperidine]-5-carbonitrile] | 160 | 328 | 67.1 | 569 |
| CS(=O)(=O)c1ccc(OCCN2CCC3(CC2)C(=O)Nc2ccc(Cl)cc23)cc1Cl [Compound 155, 5-chloro-1′-[2-(3-chloro-4-methanesulfonylphenoxy)ethyl]-1,2-dihydrospiro[indole-3,4′-piperidin]-2-one] | 9.65 | 25.9 | 26.2 | 36.1 |
| CS(=O)(=O)c1ccc(OCCN2CCC3(CC2)C(=O)Nc2ccc(C#N)cc23)cc1Cl [Compound 156, 1′-[2-(3-chloro-4-methanesulfonylphenoxy)ethyl]-2-oxo-1,2-dihydrospiro[indole-3,4′-piperidine]-5-carbonitrile] | 44.8 | 96.6 | 55.9 | 154 |
| CC(C)(C#N)c1ccc(OCCN2CCC3(CC2)C(=O)Nc2ccc(C#N)cc23)cc1 [Compound 157, 1′-{2-[4-(1-cyano-1-methylethyl)phenoxy]ethyl}-2-oxo-1,2-dihydrospiro[indole-3,4′-piperidine]-5-carbonitrile] | 45.1 | 109 | 50.4 | 142 |
| CC1(S(=O)(=O)c2ccc(OCCN3CCC4(CC3)C(=O)Nc3ccc(Cl)cc34)cn2)COC1 [Compound 158, 5-chloro-1′-[2-({6-[(3-methyloxetan-3-yl)sulfonyl]pyridin-3-yl}oxy)ethyl]-1,2-dihydrospiro[indole-3,4′-piperidin]-2-one] | 45.9 | 94.2 | 65.7 | 142 |
| CS(=O)(=O)C1(c2ccc(OCCN3CCC4(CC3)C(=O)N(CCO)c3ccc(Cl)cc34)cc2)COC1 [Compound 160, 5-chloro-1-(2-hydroxyethyl)-1′-{2-[4-(3-methanesulfonyloxetan-3-yl)phenoxy]ethyl}-1,2-dihydrospiro[indole-3,4′-piperidin]-2-one] | 42.3 | 109 | 75.4 | 156 |
| Cc1cc(OCCN2CCC3(CC2)C(=O)Nc2ccc(Cl)cc23)cnc1S(C)(=O)=O [Compound 161, 5-chloro-1′-{2-[(6-methanesulfonyl-5-methylpyridin-3-yl)oxy]ethyl}-1,2-dihydrospiro[indole-3,4′-piperidin]-2-one] | 33.3 | 76.3 | 46.4 | 107 |
| O=C1CCc2cc(OCCN3CCC4(CC3)C(=O)Nc3ccc(Cl)cc34)ccc2N1CCO [Compound 162, 5-chloro-1′-(2-{[1-(2-hydroxyethyl)-2-oxo-1,2,3,4-tetrahydroquinolin-6-yl]oxy}ethyl)-1,2-dihydrospiro[indole-3,4′-piperidin]-2-one] | 50.9 | 143 | 57.1 | 142 |
| CS(=O)(=O)c1ccc(OCCN2CCC3(CC2)C(=O)Nc2ccc(Cl)cc23)cc1OC(F)F [Compound 163, 5-chloro-1′-{2-[3-(difluoromethoxy)-4-methanesulfonylphenoxy]ethyl}-1,2-dihydrospiro[indole-3,4′-piperidin]-2-one] | 21.2 | 55.9 | 24.6 | 90 |
| CS(=O)(=O)c1ccc(OCCN2CCC3(CC2)C(=O)Nc2ccc(C#N)cc23)cc1OC(F)F [Compound 164, 1′-{2-[3-(difluoromethoxy)-4-methanesulfonylphenoxy]ethyl}-2-oxo-1,2-dihydrospiro[indole-3,4′-piperidine]-5-carbonitrile] | 87.1 | 211 | 103 | 349 |
